Assay results reported in patent publication US20090281142A1, “THIAZOLE DERIVATIVE” (ASTELLAS PHARMA INC., priority 2005, published 2009).

Columns and labels:
[1] = target: T1, recombinant human liver GK (GST-hGK2) (Homo sapiens, UniProt P35557); test: Measurement of GK activation; assay type: biochemical; settings: 10 min; 10 μM test agent, 5 mM glucose, increase of absorbance (340 nm) in first 10 minutes relative to DMSO control
T1 construct: cloning of ORF (open reading frame) was carried out by the following procedure based on AK122876.1; made in house; host or cells: E. coli
T1 sequence (P35557 1-466 isoform P35557-2): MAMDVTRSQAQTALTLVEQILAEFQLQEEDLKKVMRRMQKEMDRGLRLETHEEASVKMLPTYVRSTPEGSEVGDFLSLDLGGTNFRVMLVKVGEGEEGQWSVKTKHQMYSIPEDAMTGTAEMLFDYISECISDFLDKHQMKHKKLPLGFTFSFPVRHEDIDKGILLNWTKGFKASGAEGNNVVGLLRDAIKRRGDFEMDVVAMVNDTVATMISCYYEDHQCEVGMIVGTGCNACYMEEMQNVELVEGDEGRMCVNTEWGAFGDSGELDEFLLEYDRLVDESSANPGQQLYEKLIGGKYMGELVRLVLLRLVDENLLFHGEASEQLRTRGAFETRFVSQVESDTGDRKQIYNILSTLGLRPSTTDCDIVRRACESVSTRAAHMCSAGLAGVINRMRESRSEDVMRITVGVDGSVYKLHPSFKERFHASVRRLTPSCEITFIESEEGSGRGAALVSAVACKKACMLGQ
Method: Measurement of the GK activation by test agents was carried out in accordance with the method described in Science 301: 370-373, 2003, and by partially modifying this. The GK activity was measured as a change in absorbance based on the amount of NADPH which is converted from NADP (nicotinamide adenine dinucleotide phosphate) when glucose 6-phosphate produced by GK using glucose as the substrate is […] glucose-6-phosphate dehydrogenase.
Regarding the recombinant human liver GK (GST-hGK2) to be used in this assay, it was used by expressing as GST (glutathione S transferase)-fusion protein in E. coli and purifying by a Glutathione Sepharose column.
Regarding the sequence of glucokinase isoform 2, cloning of ORF (open reading frame) was carried out by the following procedure based on AK122876.1 (accession number). Using pME18S-FL3-Glucokinase isoform 2 as the template, PCR (polymerase chain reaction) was carried out using 5′-[…]-3′(SEQ ID NO:1) as the 5′ primer and 5′-[…]-3′ (SEQ ID NO:2) as the 3′ primer, and the PCR product was TA-cloned into pGEM-T easy vector. The sequence of this clone was confirmed by carrying out its sequencing. Thereafter, a fragment digested with EcoRI and XhoI was ligated to a vector pGEX-5X-1 digested in the same manner to prepare pGEX-human Glucokinase 2.
Regarding the enzyme reaction, the measurement was carried out at 27° C. using a 96 well flat bottom plate. As the enzyme mixed liquid, 25 mM HEPES pH 7.4; 25 mM KCl; 2 mM MgCl2; 1 mM ATP; 0.1% BSA; 1 mM DTT; 0.8 mM NADP; 2.5 U/ml glucose-6-phosphate dehydrogenase; GST-hGK2 (all in final concentration, however, the amount of GST-hGK2 was adjusted in such a manner that increase of absorbance of the DMSO control in 10 minutes (ΔOD) becomes about 0.12) was prepared. The enzyme mixed liquid was dispensed in 89 μl portions into the aforementioned plate, and a test agent dissolved in DMSO or the DMSO control was added thereto in 1 μl portions. Subsequently, glucose (5 mM in final concentration) was added as the substrate solution in 10 μl portions and the reaction was started at 27° C.
After commencement of the reaction, the absorbance was measured at a wavelength of 340 nm for 15 minutes at intervals of about 30 seconds, and the GK activation of each compound was calculated from the increase of absorbance during the first 10 minutes (ΔOD). Index of the GK activation of each test agent was calculated from the following formula as the GK activation (%).
GK activation (%)=[(ΔODTest)−(ΔODCont)]/(ΔODCont)×100
ΔODTest: ΔOD at 10 μM test agent
ΔODCont: ΔOD of DMSO control

C57BL6 mice = test: Hypoglycemic action in C57BL6 mice; assay type: in vivo; settings: 10 mg/kg oral, 1 hour after administration, freely ingesting C57BL6 mice
Method: Body weights of freely ingesting C57BL6 mice (N=5) were measured. Each test compound was dissolved in Cremophor (registered trademark) solvent (Cremophor:DMSO:Water 5:5:90, v/v/v) to a concentration of 1 mg/ml. To each mouse was orally administered 10 ml/kg of the agent liquid (corresponds to the test compound of 10 mg/kg) or 10 ml/kg of the solvent control. Just before the administration of the test compound, about 60 μl of blood was collected from the venous plexus of the fundus of the eye using a capillary. Blood was collected in the same manner 1 or 4 hours after the administration of the test compound. Blood plasma was separated from the thus collected blood to measure the blood glucose level. The blood glucose level after 1 or 4 hours of the administration of the test compound was compared with the blood glucose level of the solvent control group at the same period of time.

ICR mice = test: Action upon high blood glucose level after oral glucose loading in ICR mice; assay type: in vivo; settings: 3 mg/kg oral, fasted ICR mice, AUC of blood glucose from administration until 2 hours after oral glucose loading (2 g/kg) vs solvent control
Method: After overnight fasting, body weights of ICR mice (N=5) were measured. Each test compound was dissolved in Cremophor solvent (Cremophor:DMSO:Water 5:5:90, v/v/v) to a concentration of 0.3 mg/ml. To each mouse was orally administered 10 ml/kg of the agent liquid (corresponds to the test compound of 3 mg/kg) or 10 ml/kg of the solvent control. Just before the administration of the test compound, about 60 μl of blood was collected from the venous plexus of the fundus of the eye using a capillary. After 30 minutes of the administration of the test compound, 200 mg/ml of glucose aqueous solution was orally administered at a dose of 10 ml/kg (corresponds to 2 g/kg). Just before the administration of glucose, about 60 μl of blood was collected from the venous plexus of the fundus of the eye using a capillary. Blood was collected in the same manner after 0.5, 1 and 2 hours of the glucose administration. Blood plasma was separated from the thus collected blood to measure the blood glucose level. AUC of the blood glucose level after the administration of the test compound until 2 hours after the glucose loading was compared with AUC of the solvent control group within the same period of time.

[2] = test system: db/db (C57BL/KsJ-db/db) mice; test: Action upon high blood glucose level after oral glucose loading in db/db mice; assay type: in vivo; settings: 10 mg/kg oral, fasted db/db mice, from administration until 2 hours after oral glucose loading (2 g/kg)
Method: After overnight fasting, body weights of db/db (C57BL/KsJ-db/db) mice (N=5) were measured. Each test compound was dissolved in Cremophor solvent (Cremophor:DMSO:Water 5:5:90, v/v/v) to a concentration of 1 mg/ml. To each db/db mouse was orally administered 10 ml/kg of the agent liquid (corresponds to the test compound of 10 mg/kg) or 10 ml/kg of the solvent control. Just before the administration of the test compound, about 60 μl of blood was collected from the venous plexus of the fundus of the eye using a capillary. After 30 minutes of the administration of the GK activator, 200 mg/ml of glucose aqueous solution was orally administered at a dose of 10 ml/kg (corresponds to 2 g/kg). Just before the administration of glucose, about 60 μl of blood was collected from the venous plexus of the fundus of the eye using a capillary. Blood was collected in the same manner after 0.5, 1 and 2 hours of the glucose administration. Blood plasma was separated from the thus collected blood to measure the blood glucose level. AUC of the blood glucose level after the administration of the test compound until 2 hours after the glucose loading was compared with AUC of the solvent control group within the same period of time.

SMILES | activation at 10 µM [1] [%] | blood glucose level lowered in comparison with the solvent control group (C57BL6 mice) [%] | Blood glucose lowering ratio (%) (ICR mice) | AUC of the blood glucose level lowered in comparison with AUC of the solvent control group [2] [%]
CS(=O)(=O)c1ccc([C@@H](CC2CCCC2)C(=O)Nc2nc(C(O)CO)cs2)cc1 (stereo partly drawn) [Ex 5, (2R)-3-cyclopentyl-N-[4-(1,2-dihydroxyethyl)-1,3-thiazol-2-yl]-2-[4-(methylsulfonyl)phenyl]propanamide] | 263 | – | – | –
CS(=O)(=O)c1ccc(/C(=C\C2CCCC2)C(=O)Nc2nc(C(O)CO)cs2)cc1 (stereo not drawn) [Ex 6, (2E)-3-cyclopentyl-N-[4-(1,2-dihydroxyethyl)-1,3-thiazol-2-yl]-2-[4-(methylsulfonyl)phenyl]acrylamide] | 299 | 22 | – | –
O=C(Nc1nc(C(O)CO)cs1)C(CC1CCCC1)c1ccc(S(=O)(=O)C(F)(F)F)cc1 (stereo not drawn) [Ex 7, 3-cyclopentyl-N-[4-(1,2-dihydroxyethyl)-1,3-thiazol-2-yl]-2-{4-[(trifluoromethyl)sulfonyl]phenyl}propanamide] | 214 | – | – | –
CC1(C)OCC(c2csc(NC(=O)/C(=C/C3CCCC3)c3ccc(S(C)(=O)=O)c(Cl)c3)n2)O1 (stereo not drawn) [Ex 10, (2E)-2-[3-chloro-4-(methylsulfonyl)phenyl]-3-cyclopentyl-N-[4-(2,2-dimethyl-1,3-dioxolan-4-yl)-1,3-thiazol-2-yl]acrylamide] | 294 | – | – | –
O=C(Nc1nc([C@H](O)CO)cs1)/C(=C/C1CCCC1)c1ccc(S(=O)(=O)C2CC2)cc1 [Ex 13, (2E)-3-cyclopentyl-2-[4-(cyclopropylsulfonyl)phenyl]-N-{4-[(1S)-1,2-dihydroxyethyl]-1,3-thiazol-2-yl}acrylamide] | 293 | – | 19 | –
CC1(C)OCC(c2csc(NC(=O)/C(=C/C3CCCC3)c3ccc(S(C)(=O)=O)cc3)n2)O1 (stereo not drawn) [Ex 38, (2E)-3-cyclopentyl-N-[4-(2,2-dimethyl-1,3-dioxolan-4-yl)-1,3-thiazol-2-yl]-2-[4-(methylsulfonyl)phenyl]acrylamide] | 239 | – | – | –
CC(=O)OCC(O)c1csc(NC(=O)/C(=C/C2CCCC2)c2ccc(S(C)(=O)=O)cc2)n1 (stereo not drawn) [Ex 44] | 283 | – | – | –
O=C(Nc1nc(C(O)CO)cs1)/C(=C/C1CCCC1)c1ccc(S(=O)(=O)C2CC2)cc1 (stereo not drawn) [Ex 45, (2E)-3-cyclopentyl-2-[4-(cyclopropylsulfonyl)phenyl]-N-[4-(1,2-dihydroxyethyl)-1,3-thiazol-2-yl]acrylamide] | 249 | – | 23 | 39
CS(=O)(=O)c1ccc([C@@H](CC2CCCC2)C(=O)Nc2nc(C(O)CO)c(Cl)s2)cc1 (stereo partly drawn) [Ex 49] | 273 | – | – | –
O=C(Nc1nc(C(O)CO)cs1)/C(=C/C1CCCC1)c1ccc(S(=O)(=O)C2CCC2)cc1 (stereo not drawn) [Ex 62, (2E)-2-[4-(cyclobutylsulfonyl)phenyl]-3-cyclopentyl-N-[4-(1,2-dihydroxyethyl)-1,3-thiazol-2-yl]acrylamide] | 227 | – | 19 | –
CC(O)(CO)c1csc(NC(=O)/C(=C/C2CCCC2)c2ccc(S(=O)(=O)C3CC3)cc2)n1 (stereo not drawn) [Ex 63, (2E)-3-cyclopentyl-2-[4-(cyclopropylsulfonyl)phenyl]-N-[4-(1,2-dihydroxy-1-methylethyl)-1,3-thiazol-2-yl]acrylamide] | 241 | – | 35 | –
O=C(Nc1nc(C(O)CO)cs1)[C@H](CC1CCCC1)c1ccc(S(=O)(=O)C2CC2)cc1 (stereo partly drawn) [Ex 66] | 267 | – | – | –
O=C(Nc1nc(CC(CO)CO)cs1)/C(=C/C1CCCC1)c1ccc(S(=O)(=O)C2CC2)cc1 [Ex 70, (2E)-3-cyclopentyl-2-[4-(cyclopropylsulfonyl)phenyl]-N-{4-[3-hydroxy-2-(hydroxymethyl)propyl]-1,3-thiazol-2-yl} acrylamide] | 244 | – | – | –
O=C(Nc1nc(C(O)CCO)cs1)/C(=C/C1CCCC1)c1ccc(S(=O)(=O)C2CC2)cc1 (stereo not drawn) [Ex 71] | 240 | – | 22 | –
CC(O)(CO)c1csc(NC(=O)/C(=C/C2CCCC2)c2ccc(S(=O)(=O)C3CCC3)cc2)n1 (stereo not drawn) [Ex 73, (2E)-2-[4-(cyclobutylsulfonyl)phenyl]-3-cyclopentyl-N-[4-(1,2-dihydroxy-1-methylethyl)-1,3-thiazol-2-yl]acrylamide] | 235 | – | 27 | –
CC(O)(CO)c1csc(NC(=O)[C@H](CC2CCCC2)c2ccc(S(=O)(=O)C3CC3)cc2)n1 (stereo partly drawn) [Ex 74, (2R)-3-cyclopentyl-2-[4-(cyclopropylsulfonyl)phenyl]-N-[4-(1,2-dihydroxy-1-methylethyl)-1,3-thiazol-2-yl]propanamide] | 260 | – | 23 | –
O=C(Nc1nc(C(=O)CO)cs1)/C(=C/C1CCCC1)c1ccc(S(=O)(=O)C2CC2)cc1 [Ex 77, (2E)-3-cyclopentyl-2-[4-(cyclopropylsulfonyl)phenyl]-N-(4-glycoloyl-1,3-thiazol-2-yl)acrylamide] | 217 | – | 18 | –
